Here are results for 33 compounds from US9694016B2 (Novartis AG, priority 2013, dated 2017).

pIC50: −log10 of the molar value.

In one experiment the target is b-Raf (V600E) (Homo sapiens (Human), UniProt P15056, V600E). The following applies: read-out: b-Raf IC-50.
Chain of b-Raf (V600E) (P15056 whole entry V600E): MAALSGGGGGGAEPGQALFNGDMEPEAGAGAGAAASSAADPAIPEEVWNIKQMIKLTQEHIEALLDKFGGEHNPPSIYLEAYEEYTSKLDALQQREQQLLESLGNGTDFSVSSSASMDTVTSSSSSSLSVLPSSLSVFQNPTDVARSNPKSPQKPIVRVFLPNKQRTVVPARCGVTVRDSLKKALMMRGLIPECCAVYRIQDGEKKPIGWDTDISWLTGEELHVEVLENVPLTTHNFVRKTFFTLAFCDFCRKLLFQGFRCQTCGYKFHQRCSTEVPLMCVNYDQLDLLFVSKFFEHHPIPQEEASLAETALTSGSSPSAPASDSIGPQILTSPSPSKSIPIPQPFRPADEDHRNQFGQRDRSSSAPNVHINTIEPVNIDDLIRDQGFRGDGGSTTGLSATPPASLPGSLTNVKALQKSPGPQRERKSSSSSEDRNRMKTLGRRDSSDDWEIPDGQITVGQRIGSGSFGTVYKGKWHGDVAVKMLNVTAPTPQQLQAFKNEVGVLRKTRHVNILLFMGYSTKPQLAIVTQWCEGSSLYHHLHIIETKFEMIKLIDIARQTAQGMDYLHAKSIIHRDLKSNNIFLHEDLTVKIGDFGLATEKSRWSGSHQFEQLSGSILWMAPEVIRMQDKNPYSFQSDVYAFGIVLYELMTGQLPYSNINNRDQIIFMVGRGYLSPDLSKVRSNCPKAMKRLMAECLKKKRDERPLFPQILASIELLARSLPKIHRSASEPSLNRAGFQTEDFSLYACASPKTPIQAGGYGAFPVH
In the case of `CCOc1ncc(-c2cc(NC(=O)c3cnnc(C(F)(F)F)c3)cnc2C)cc1N1C2CCC1COC2` [Example 282, N-(5′-(3-oxa-8-azabicyclo[3.2.1]octan-8-yl)-6′-ethoxy-2-methyl-[3,3′-bipyridin]-5-yl)-6-(trifluoromethyl)pyridazine-4-carboxamide], the pIC50 was 7.28.

Staying with this experiment, now noted: read-out: b-Raf IC-50; Table 2; AlphaScreen, 3 hours reaction.
In the case of `Cc1ccc(NC(=O)c2cnnc(C3CC3)c2)cc1-c1cnc(OC2CCOCC2)c(N2CCOCC2)c1` [Example 276, 6-cyclopropyl-N-(4-methyl-3-(5-morpholino-6-((tetrahydro-2H-pyran-4-yl)oxy)pyridin-3-yl)phenyl)pyridazine-4-carboxamide], the pIC50 is 9.40.
For the compound `Cc1ccc(NC(=O)c2ccnc(C(C)(C)O)c2)cc1-c1cnc(OC2CCOCC2)c(N2CCOCC2)c1` [Example 277, 2-(2-hydroxypropan-2-yl)-N-(4-methyl-3-(5-morpholino-6-((tetrahydro-2H-pyran-4-yl)oxy)pyridin-3-yl)phenyl)isonicotinamide], the pIC50 is 9.00.
Turning to `Cc1ncc(NC(=O)c2ccnc(C(F)(F)F)c2)cc1-c1cnc(OC2CCOCC2)c(N2C3CCC2COC3)c1` [Example 278, N-(5′-(3-oxa-8-azabicyclo[3.2.1]octan-8-yl)-2-methyl-6′-((tetrahydro-2H-pyran-4-yl)oxy)-[3,3′-bipyridin]-5-yl)-2-(trifluoromethyl)isonicotinamide], the pIC50 is 8.08.
With `Cc1ncc(NC(=O)c2ccnc(C(C)(C)F)c2)cc1-c1cnc(OC2CCOCC2)c(N2C3CCC2COC3)c1` [Example 279, N-(5′-(3-oxa-8-azabicyclo[3.2.1]octan-8-yl)-2-methyl-6′-((tetrahydro-2H-pyran-4-yl)oxy)-[3,3′-bipyridin]-5-yl)-2-(2-fluoropropan-2-yl)isonicotinamide], the pIC50 is 5.49.
`CCOc1ncc(-c2cc(NC(=O)c3cnnc(C(F)(F)F)c3)ccc2C)cc1N1CCOCC1` [Example 280, N-(3-(6-ethoxy-5-morpholinopyridin-3-yl)-4-methylphenyl)-6-(trifluoromethyl)pyridazine-4-carboxamide]: the pIC50 was 8.96.
Same read-out and setting: then `COc1ncc(-c2cc(NC(=O)c3ccnc(C(C)(C)F)c3)cnc2C)cc1N1CCOCC1` [Example 281, N-(6′-methoxy-2-methyl-5′-morpholino-[3,3′-bipyridin]-5-yl)-2-(2-fluoropropan-2-yl)isonicotinamide], with 8.20.
On the same count and under the same terms, next, `COc1ncc(-c2cc(NC(=O)c3ccnc(C4(C#N)CC4)c3)cnc2C)cc1N1CCOCC1` [Example 283, 2-(1-cyanocyclopropyl)-N-(6′-methoxy-2-methyl-5-morpholino-[3,3′-bipyridin]-5-yl)isonicotinamide]: 8.22.
As for `CCOc1ncc(-c2cc(NC(=O)c3cnnc(C(C)(C)C#N)c3)ccc2C)cc1N1CCOCC1` [Example 284, 6-(2-cyanopropan-2-yl)-N-(3-(6-ethoxy-5-morpholinopyridin-3-yl)-4-methylphenyl)pyridazine-4-carboxamide], the pIC50 was 8.96.
Turning to `CCOc1ncc(-c2cc(NC(=O)c3cnnc(C(F)(F)F)c3)cnc2C)cc1N1CCOC[C@H]1C` [Example 285], the pIC50 was 6.70.
`CCOc1ncc(-c2cc(NC(=O)c3cnnc(C(F)(F)F)c3)cnc2C)cc1N1CCOC[C@@H]1C` [Example 286, (S)—N-(6′-ethoxy-2-methyl-5′-(3-methylmorpholino)-[3,3′-bipyridin]-5-yl)-6-(trifluoromethyl)pyridazine-4-carboxamide]: the pIC50 is 6.70.
On the same count and under the same terms, then `CCOc1ncc(-c2cc(NC(=O)c3cnnc(C(C)(C)C#N)c3)cnc2C)cc1N1CCOCC1` [Example 287, 6-(2-cyanopropan-2-yl)-N-(6′-ethoxy-2-methyl-5′-morpholino-[3,3′-bipyridin]-5-yl)pyridazine-4-carboxamide], with 7.78; and `Cc1ncc(NC(=O)c2ccnc(C3(C#N)CC3)c2)cc1-c1cnc(Cl)c(N2CCOCC2)c1` [Example 288, N-(6′-chloro-2-methyl-5-morpholino-[3,3′-bipyridin]-5-yl)-2-(1-cyanocyclopropyl)isonicotinamide], with 8.22; and `Cc1ncc(NC(=O)c2ccnc(C(C)(C)C#N)c2)cc1-c1cnc(Cl)c(N2CCOCC2)c1` [Example 289, N-(6′-chloro-2-methyl-5′-morpholino-[3,3-bipyridin]-5-yl)-2-(2-cyanopropan-2-yl)isonicotinamide], with 7.81.
On the same count and under the same terms, then `Cc1ncc(NC(=O)c2ccnc(C(C)(C)F)c2)cc1-c1cnc(Cl)c(N2CCOCC2)c1` [Example 290, N-(6′-chloro-2-methyl-5′-morpholino-[3,3-bipyridin]-5-yl)-2-(2-fluoropropan-2-yl)isonicotinamide], with 8.22.
On the same count and under the same terms, then `Cc1ncc(NC(=O)c2ccnc(C(F)(F)F)c2)cc1-c1cnc(Cl)c(N2CCOCC2)c1` [Example 291, N-(6′-chloro-2-methyl-5′-morpholino-[3,3′-bipyridin]-5-yl)-2-(trifluoromethyl)isonicotinamide], with 8.64; and `Cc1ncc(NC(=O)c2cnnc(C(F)(F)F)c2)cc1-c1cnc(Cl)c(N2CCOCC2)c1` [Example 292, N-(6′-chloro-2-methyl-5′-morpholino-[3,3′-bipyridin]-5-yl)-6-(trifluoromethyl)pyridazine-4-carboxamide], with 8.42; and `Cc1ncc(NC(=O)c2cnnc(C(C)(C)C#N)c2)cc1-c1cnc(Cl)c(N2CCOCC2)c1` [Example 293, N-(6′-chloro-2-methyl-5′-morpholino-[3,3′-bipyridin]-5-yl)-6-(2-cyanopropan-2-yl)pyridazine-4-carboxamide], with 7.49.
Regarding `Cc1ncc(NC(=O)c2ccnc(C(C)(C)F)c2)cc1-c1cncc(N2CCOCC2)c1` [Example 294, 2-(2-fluoropropan-2-yl)-N-(2-methyl-5′-morpholino-[3,3′-bipyridin]-5-yl)isonicotinamide], the pIC50 was 7.97.
Take `Cc1ncc(NC(=O)c2ccnc(C(F)(F)F)c2)cc1-c1cncc(N2CCOCC2)c1` [Example 295]: the pIC50 was 8.44.
On the same count and under the same terms, next, `Cc1ncc(NC(=O)c2cnnc(C(C)(C)C#N)c2)cc1-c1cncc(N2CCOCC2)c1` [Example 296, 6-(2-cyanopropan-2-yl)-N-(2-methyl-5′-morpholino-[3,3′-bipyridin]-5-yl)pyridazine-4-carboxamide]: 7.61.
For the compound `Cc1ncc(NC(=O)c2ccnc(C(C)(C)C#N)c2)cc1-c1cncc(N2CCOCC2)c1` [Example 297, 2-(2-cyanopropan-2-yl)-N-(2-methyl-5′-morpholino-[3,3′-bipyridin]-5-yl)isonicotinamide], the pIC50 is 7.73.
As for `Cc1ncc(NC(=O)c2ccnc(C(C)(C)F)c2)cc1-c1cnc(F)c(N2CCOCC2)c1` [Example 298, N-(6′-fluoro-2-methyl-5′-morpholino-[3,3′-bipyridin]-5-yl)-2-(2-fluoropropan-2-yl)isonicotinamide], the pIC50 is 8.41.
Same read-out and setting: next, `Cc1ncc(NC(=O)c2ccnc(C(C)(C)F)c2)cc1-c1cnc(OCCO)c(N2CCOCC2)c1` [Example 299, 2-(2-fluoropropan-2-yl)-N-(6′-(2-hydroxyethoxy)-2-methyl-5′-morpholino-[3,3′-bipyridin]-5-yl)isonicotinamide]: 8.16; `Cc1ncc(NC(=O)c2ccnc(C(C)(C)C#N)c2)cc1-c1cnc(OCCO)c(N2CCOCC2)c1` [Example 300, 2-(2-cyanopropan-2-yl)-N-(6′-(2-hydroxyethoxy)-2-methyl-5′-morpholino-[3,3′-bipyridin]-5-yl)isonicotinamide]: 7.84; `Cc1ncc(NC(=O)c2cc(C(F)(F)F)ccn2)cc1-c1cnc(OCCO)c(N2CCOCC2)c1` [Example 301, N-(6′-(2-hydroxyethoxy)-2-methyl-5′-morpholino-[3,3′-bipyridin]-5-yl)-4-(trifluoromethyl)picolinamide]: 8.49.
Still for that read-out and setting: next, `Cc1ccc(NC(=O)c2cnnc(C3(C#N)CC3)c2)cc1-c1cnc(OC2CCOCC2)c(N2CCOCC2)c1` [Example 302, 6-(1-cyanocyclopropyl)-N-(4-methyl-3-(5-morpholino-6-((tetrahydro-2H-pyran-4-yl)oxy)pyridin-3-yl)phenyl)pyridazine-4-carboxamide]: 9.22.
As to `CCOc1ncc(-c2cc(NC(=O)c3cnnc(C(C)(C)C#N)c3)cnc2C)cc1N1CCOC[C@H]1C` [Example 303, (R)-6-(2-cyanopropan-2-yl)-N-(6′-ethoxy-2-methyl-5′-(3-methylmorpholino)-[3,3′-bipyridin]-5-yl)pyridazine-4-carboxamide], the pIC50 was 7.00.
Still for that read-out and setting: next, `CCOc1ncc(-c2cc(NC(=O)c3cnnc(C(C)(C)F)c3)ccc2C)cc1N1CCOCC1` [Example 304, N-(3-(6-ethoxy-5-morpholinopyridin-3-yl)-4-methylphenyl)-6-(2-fluoropropan-2-yl)pyridazine-4-carboxamide]: 9.05.
Take `CCOc1ncc(-c2cc(C(=O)Nc3ccnc(C(F)(F)F)c3)ccc2C)cc1N1CCOCC1` [Example 306, 3-(6-ethoxy-5-morpholinopyridin-3-yl)-4-methyl-N-(2-(trifluoromethyl)pyridin-4-yl)benzamide]: the pIC50 was 8.96.
As for `Cc1ncc(NC(=O)c2cccc(C(F)(F)F)c2)cc1-c1cnc(N(C)C)c(N2CCOCC2)c1` [Example 307, N-(6′-(dimethylamino)-2-methyl-5′-morpholino-[3,3′-bipyridin]-5-yl)-3-(trifluoromethyl)benzamide], the pIC50 is 9.22.
Still for that read-out and setting: then `Cc1ncc(NC(=O)c2ccnc(C(C)C)c2)cc1-c1cnc(N(C)C)c(N2CCOCC2)c1` [Example 308, N-(6′-(dimethylamino)-2-methyl-5′-morpholino-[3,3′-bipyridin]-5-yl)-2-isopropylisonicotinamide], with 9.10; and `Cc1ncc(NC(=O)c2cccc(C(F)(F)F)c2)cc1-c1cnc(OC2CCOCC2)c(N2CCOCC2=O)c1` [Example 309, N-(2-methyl-5′-(3-oxomorpholino)-6′-((tetrahydro-2H-pyran-4-yl)oxy)-[3,3′-bipyridin]-5-yl)-3-(trifluoromethyl)benzamide], with 8.04.
